Measurements reported in EP2951180B1, “2,6,7,8 SUBSTITUTED PURINES AS HDM2 INHIBITORS” (Merck Sharp & Dohme Corp., priority 2013, dated 2014).
Read-outs that look alike come from different tables or passages of the source.

Biological target: T1, HDM2 (Homo sapiens, UniProt Q00987)
T1 construct: Thioredoxin (N); made in house; host or cells: E. coli strain BL21(DE3)Rosetta
Assay: HDM2 FRET assay (inhibition of binding of FITC labeled p53-pocket peptide to HDM2)
Settings: read-out: FRET IC50
Summary of the method: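 Compounds were tested in 10-point serial dilution against 0.5 nM recombinant HDM2 binding 3 nM fluorescein-labeled p53-pocket peptide. Detection used 0.25 nM terbium cryptate anti-6xHis antibody in PBS buffer containing 0.01% BSA and 0.01% Tween-20.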

[1] = 0.5 nM HDM2 (residues 17 to 125), 3nM peptide, two hour incubation at room temperature

T1 sequence (Q00987 17-125): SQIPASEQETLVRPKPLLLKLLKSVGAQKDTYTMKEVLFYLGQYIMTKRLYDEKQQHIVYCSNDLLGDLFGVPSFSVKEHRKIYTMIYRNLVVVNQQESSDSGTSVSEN

## Cc1cccc(-c2nc3nc(C(=O)O)nc(N[C@@H](C)c4ccc(Cl)cc4)c3n2Cc2ccc(C(F)(F)F)cc2)c1 [Example 6.46, 6-{[(1S)-1-(4-chlorophenyl)ethyl]amino}-8-(3-methylphenyl)-7-[4-(trifluoromethyl)benzyl]-7H-purine-2-carboxylic acid]
Table 6
  IC50: 4120 nM

## C[C@H](O)[C@H](Nc1nc2nc(-c3noc(=O)[nH]3)nc(-c3cccc(Cl)c3)c2n1C[C@H]1CC[C@H](C)CC1)c1ccccc1 [Example 16.8, 3-(6-(3-chlorophenyl)-8-(((1R,2S)-2-hydroxy-1-phenylpropyl)amino)-7-(((trans)-4-methylcyclohexyl)methyl)-7H-purin-2-yl)-1,2,4-oxadiazol-5(4H)-one]
[1]
  IC50: 1.49 nM

## C[C@@H](Nc1nc(-c2n[nH]c(=O)o2)nc2nc(N3CCO[C@H]4CCCC[C@H]43)n(C[C@H]3CC[C@H](C)CC3)c12)C1CCC1 (single isomer, unassigned) [Example 11.162]
Table 11
  IC50: 7.4 nM

## C[C@H]1CC[C@H](Cn2c(C3(c4ccccn4)CC3)nc3nc(-c4nc(=O)o[nH]4)nc(-c4cccc(Cl)c4)c32)CC1 [Example 23.102, 3-[6-(3-chlorophenyl)-7-[(trans-4-methylcyclohexyl)methyl] -8-(1-pyridin-2-ylcyclopropyl)-7H-purin-2-yl]-1,2,4-oxadiazol-5(2H)-one]
Table 23
  IC50: 17 nM

## CC(O)c1nc2nc(-c3noc(=O)[nH]3)nc(N[C@H](C)C3CCC3)c2n1C[C@H]1CC[C@H](C)CC1 (single isomer, unassigned) [Example 22.14]
Table 22
  IC50: 81.1 nM

## C[C@@H](Nc1nc(C(=O)O)nc2nc(CN(C)Cc3ccccc3)n(Cc3ccc(C(F)(F)F)cc3)c12)C1CCC1 [Example 10.13, (R)-8-((benzyl(methyl)amino)methyl)-6-((1-cyclobutylethyl)amino)-7-(4-(trifluoromethyl)benzyl)-7H-purine-2-carboxylic acid]
Table 10
  IC50: 47.7 nM

## C[C@@H](Nc1nc(-c2noc(=O)[nH]2)nc2nc(C(O)(CO)c3ccccc3)n(C[C@H]3CC[C@H](C)CC3)c12)C1CCC1 (single isomer, unassigned) [Example 22.61]
Table 22
  IC50: 2.8 nM

## Cc1cccc(-c2nc3nc(C(=O)O)nc(N4CCCC4)c3n2Cc2ccc(C(F)(F)F)cc2)c1 [Example 6.23, 8-(3-methylphenyl)-6-pyrrolidin-1-yl-7-[4-(trifluoromethyl)benzyl]-7H-purine-2-carboxylic acid]
Table 6
  IC50: 8270 nM

## C[C@@H](Nc1nc(-c2noc(=O)[nH]2)nc2nc(C3(c4ccncc4)CC3)n(C[C@H]3CC[C@H](C)CC3)c12)C1CCC1 [Example 22.53, 3-[6-{[(1R)-1-cyclobutylethyl]amino}-7-[(trans-4-methylcyclohexyl)methyl] -8-(1-pyridin-4-ylcyclopropyl)-7H-purin-2-yl]-1,2,4-oxadiazol-5(4H)-one]
Table 22
  IC50: 4.6 nM

## COC1(c2nc3nc(-c4noc(=O)[nH]4)nc(-c4cncc(Cl)c4)c3n2C[C@H]2CC[C@H](C)CC2)CCCCC1C (relative stereo) [Example 23.63, 3-{6-(5-chloropyridin-3-yl)-8-(1-methoxy-2-methylcyclohexyl)-7-[(trans-4-methylcyclohexyl)methyl] -7H-purin-2-yl}-1,2,4-oxadiazol-5(4H)-one]
Table 23
  IC50: 7.64 nM

## CC(C)CN(C)c1nc2nc(-c3noc(=O)[nH]3)nc(N[C@H](C)C3CCC3)c2n1C[C@H]1CC[C@H](C)CC1 [Example 11.48, 3-(6-{[(1R)-1-cyclobutylethyl]amino}-7-[(trans-4-methylcyclohexyl)methyl]-8-[methyl(2-methylpropyl)amino] -7H-purin-2-yl)-1,2,4-oxadiazol-5(4H)-one]
Table 11
  IC50: 6.71 nM

## CC1CCCN(c2nc3nc(C(=O)O)nc(N[C@H](C)C4CCC4)c3n2C[C@H]2CC[C@H](C)CC2)C1c1ccccc1 (stereo partly drawn) [Example 11.6, 6-(((R)-1-cyclobutylethyl)amino)-8-(3-methyl-2-phenylpiperidin-1-yl)-7-((trans-4-methylcyclohexyl)methyl)-7H-purine-2-carboxylic acid]
Table 11
  IC50: 1.82 nM

## C[C@@H](Nc1nc(-c2noc(=O)[nH]2)nc2nc(N3CCCCC3Cc3ccccc3)n(C[C@H]3CC[C@H](C)CC3)c12)C1CCC1 (stereo partly drawn) [Example 11.45, 3-{8-(2-benzylpiperidin-1-yl)-6-{[(1R)-1-cyclobutylethyl]amino}-7-[(trans-4-methylcyclohexyl)methyl]-7H-purin-2-yl}-1,2,4-oxadiazol-5(2H)-one]
Table 11
  IC50: 81.9 nM

## C[C@@H](Nc1nc(-c2nc(=O)o[nH]2)nc2nc(N3CCCC[C@@H]3C)n(C[C@H]3CC[C@H](C)CC3)c12)C1CCC1 (single isomer, unassigned) [Example 11.59]
Table 11
  IC50: 13.5 nM

## C[C@@H](Nc1nc(S(C)(=O)=O)nc2nc(N3CCOC[C@H]3c3ccccc3)n(C[C@H]3CC[C@H](C)CC3)c12)C1CCC1 [Example 14.1, N-((R)-1-cyclobutylethyl)-7-((trans-4-methylcyclohexyl)methyl)-2-(methylsulfonyl)-8-((R)-3-phenylmorpholino)-7H-purin-6-amine]
[1]
  IC50: 23.5 nM

## CC(C)c1ccnc(-c2nc3nc(C(=O)O)nc(N[C@H](C)C4CCC4)c3n2C[C@H]2CC[C@H](C)CC2)c1 [Example 15.1, 6-(((R)-1-cyclobutylethyl)amino)-8-(4-isopropylpyridin-2-yl)-7-((trans-4-methylcyclohexyl)methyl)-7H-purine-2-carboxylic acid]
[1]
  IC50: 1.3 nM

## CC1CCN(c2nc3nc(-c4noc(=O)[nH]4)nc(N[C@H](C)C4CCC4)c3n2C[C@H]2CC[C@H](C)CC2)C(c2ccccc2)C1 (single isomer, unassigned) [Example 11.69]
Table 11
  IC50: 17.3 nM

## C[C@@H]1COCCN1c1nc2nc(-c3n[nH]c(=O)o3)nc(N[C@H](C)C3CCC3)c2n1C[C@H]1CC[C@H](C)CC1 [Example 11.97, 5-(6-{[(1R)-1-cyclobutylethyl]amino}-7-[(trans-4-methylcyclohexyl)methyl]-8-[(3R)-3-methylmorpholin-4-yl]-7H-purin-2-yl)-1,3,4-oxadiazol-2(3H)-one]
Table 11
  IC50: 1.94 nM

## CC[C@H]1CC[C@H](Cn2c(-c3cccc(C)c3)nc3nc(C(=O)O)nc(N[C@H](C)C4CCC4)c32)CC1 [Example 18.15, 6-{[(1R)-1-cyclobutylethyl]amino}-7-[(trans-4-ethylcyclohexyl)methyl]-8-(3-methylphenyl)-7H-purine-2-carboxylic acid]
Table 18
  IC50: 201 nM

## Cc1cccc(-c2nc3nc(C(=O)O)nc(NC4CCOCC4)c3n2Cc2ccc(C(F)(F)F)cc2)c1 [Example 6.43, 8-(3-methylphenyl)-6-(tetrahydro-2H-pyran-4-ylamino)-7-[4-(trifluoromethyl)benzyl]-7H-purine-2-carboxylic acid]
Table 6
  IC50: 1710 nM

## C[C@@H](Nc1nc(-c2noc(=O)[nH]2)nc2nc(N3CCCC[C@H]3c3ccccc3)n(C[C@H]3CC[C@H](C)CC3)c12)C1CCC1 [Example 11.15, 3-(6-{[(1R)-1-cyclobutylethyl]amino}-7-[(trans-4-methylcyclohexyl)methyl]-8-[(2S)-2-phenylpiperidin-1-yl]-7H-purin-2-yl)-1,2,4-oxadiazol-5(4H)-one]
Table 11
  IC50: 2.81 nM

## C[C@@H](Nc1nc(C(=O)O)nc2nc(C3=C(c4ccccc4)CCCC3)n(Cc3ccc(C(F)(F)F)cc3)c12)C1CCC1 [Example 21.3, 6-{[(1R)-1-cyclobutylethyl]amino}-8-(2-phenylcyclohex-1-en-1-yl)-7-[4-(trifluoromethyl)benzyl]-7H-purine-2-carboxylic acid]
Table 21
  IC50: 5.82 nM

## C[C@@H]1OCCN(c2nc3nc(-c4n[nH]c(=O)o4)nc(N[C@H](C)C4CCC4)c3n2C[C@H]2CC[C@H](C)CC2)[C@H]1C (stereo in doubt) [Example 11.167, 5-(6-{[(1R)-1-cyclobutylethyl]amino}-8-[(trans)-2,3-dimethylmorpholin-4-yl]-7-[(trans-4-methylcyclohexyl)methyl]-7H-purin-2-yl)-1,3,4-oxadiazol-2(3H)-one]
Table 11
  IC50: 2.16 nM

## C[C@@H](Nc1nc(C(=O)O)nc2nc(N3CCCC4CCCCC43)n(C[C@H]3CC[C@H](C)CC3)c12)C1CCC1 (stereo partly drawn) [Example 11.20, 6-{[(1R)-1-cyclobutylethyl]amino}-7-[(trans-4-methylcyclohexyl)methyl]-8-(octahydroquinolin-1(2H)-yl)-7H-purine-2-carboxylic acid]
Table 11
  IC50: 1.34 nM

## CC[C@@H]1COCCN1c1nc2nc(-c3noc(=O)[nH]3)nc(-c3cccc(Cl)c3)c2n1C(C)[C@H]1CC[C@H](C)CC1 (single isomer, unassigned) [Example 18.50]
Table 18
  IC50: 7.04 nM

## C[C@@H](Nc1nc(-c2noc(=O)[nH]2)nc2nc(N(C)Cc3cncs3)n(C[C@H]3CC[C@H](C)CC3)c12)C1CCC1 [Example 11.73, 3-(6-{[(1R)-1-cyclobutylethyl]amino}-7-[(trans-4-methylcyclohexyl)methyl]-8-[methyl(1,3-thiazol-5-ylmethyl)amino]-7H-purin-2-yl)-1,2,4-oxadiazol-5(2H)-one]
Table 11
  IC50: 11.5 nM

## CC[C@H]1CC[C@H](Cn2c(N3CCOC[C@H]3c3ccccc3)nc3nc(-c4noc(=O)[nH]4)nc(N[C@H](C)C4CCC4)c32)CC1 [Example 18.22, 3-(6-{[(1R)-1-cyclobutylethyl]amino}-7-[(trans-4-ethylcyclohexyl)methyl]-8-[(3R)-3-phenylmorpholin-4-yl]-7H-purin-2-yl)-1,2,4-oxadiazol-5(4H)-one]
Table 18
  IC50: 3.86 nM

## C[C@@H](Nc1nc(-c2noc(=O)[nH]2)nc2nc(CC(C)(C)O)n(C[C@H]3CC[C@H](C)CC3)c12)C1CCC1 [Example 22.16, 3-(6-{[(1R)-1-cyclobutylethyl]amino}-8-(2-hydroxy-2-methylpropyl)-7-[(trans-4-methylcyclohexyl)methyl]-7H-purin-2-yl)-1,2,4-oxadiazol-5(4H)-one]
Table 22
  IC50: 55.6 nM
